Measured values taken from ChEMBL document CHEMBL5252553, “Synthesis and biological activities of drugs for the treatment of osteoporosis” (Eur J Med Chem, 2020).

Assay: n-Octanol/water partition coefficient, log P of the compound
Type: physicochemical

Row | SMILES | logP
1 | CCCCCCCCCCCCCC(=O)NCCCC(O)(P(=O)(O)O)P(=O)(O)O | 0.045
2 | CCCCCCCCCCCC(=O)NCCCC(O)(P(=O)(O)O)P(=O)(O)O | 0.027
3 | CCCCCCCCCCCCCCCC(=O)NCCCC(O)(P(=O)(O)O)P(=O)(O)O | 0.053
4 | CCCCCCCCCCCCCCCCCC(=O)NCCCC(O)(P(=O)(O)O)P(=O)(O)O | 0.063
